Data: paper PMC9621292, “Design and synthesis of some new benzoylthioureido benzenesulfonamide derivatives and their analogues as carbonic anhydrase inhibitors” (Journal of Enzyme Inhibition and Medicinal Chemistry, 2022)

Molecular target: hCA II (Homo sapiens, UniProt P00918)
Test: Stopped flow CO2 hydrase assay, hCA II
Conditions: not given

Structure (SMILES) | Ki
Cc1ccc(C(=O)Nc2cccc(C(=O)NC(=S)Nc3ccc(C(=O)O)cc3)c2)cc1 [Compound 8c, 4-(3-(3-(4-Methylbenzamido)benzoyl)thioureido)benzoic acid] | 0.295 µM
CC(=O)Nc1ccc(C(=O)NC(=S)Nc2ccc(C(=O)O)cc2)cc1 [Compound 8d, 4-(3-(4-Acetamidobenzoyl)thioureido)benzoic acid] | 0.855 µM
Cc1ccc(C(=O)Nc2cccc(C(=O)NC(=S)Nc3ccc(S(N)(=O)=O)cc3)c2)cc1 [Compound 7c, 3-(4-Methylbenzamido)-N-((4-sulfamoylphenyl)carbamothioyl)benzamide] | 0.0566 µM
CC(C)C(=O)Nc1cccc(C(=O)NC(=S)Nc2ccc(C(=O)O)cc2)c1 [Compound 8b, 4-(3-(3-Isobutyramidobenzoyl)thioureido)benzoic acid] | > 100 µM
CC(C)C(=O)Nc1ccc(C(=O)NC(=S)Nc2ccc(C(=O)O)cc2)cc1 [Compound 8e, 4-(3-(4-Isobutyramidobenzoyl)thioureido)benzoic acid] | 0.43 µM
Cc1ccc(C(=O)Nc2ccc(C(=O)NC(=S)Nc3ccc(S(N)(=O)=O)cc3)cc2)cc1 [Compound 7f, 4-Methyl-N-(4(((4sulfamoylphenyl)carbamothioyl)carbamoyl)phenyl) benzamide] | 0.039 µM

Other lines, results leading:

Ki | Structure (SMILES)
> 100 µM | Cc1ccc(C(=O)Nc2ccc(C(=O)NC(=S)Nc3ccc(C(=O)O)cc3)cc2)cc1 [Compound 8f, 4-(3-(4–(4-Methylbenzamido)benzoyl)thioureido)benzoic acid]
> 100 µM | CCOC(=O)c1ccc(NC(=S)NC(=O)c2ccc(NC(C)=O)cc2)cc1 [Compound 9d, Ethyl 4–(3-(4-acetamidobenzoyl)thioureido)benzoate]
0.0571 µM | CCOC(=O)c1ccc(NC(=S)NC(=O)c2cccc(NC(=O)C(C)C)c2)cc1 [Compound 9b, Ethyl 4–(3-(3-isobutyramidobenzoyl)thioureido)benzoate]

Molecular target: CA IX
Test: not given
Conditions: compound A, printed in Figure 2; read-out: Ki hCA IX; cited from earlier work

Structure (SMILES) | Ki
NS(=O)(=O)c1ccc(NC(=S)NC(=O)c2ccc(Cl)cc2Cl)cc1 [Compound A] | 0.00012 µM

Same assay, conditions: reported for compound A; cited from earlier work

Structure (SMILES) | IC50
NS(=O)(=O)c1ccc(NC(=S)NC(=O)c2ccc(Cl)cc2Cl)cc1 [Compound A] | 0.00012 µM

Test system: not given
Test: not given
Conditions: not given

Structure (SMILES) | melting point
Cc1ccc(C(=O)Nc2cccc(C(=O)NC(=S)Nc3ccc(C(=O)O)cc3)c2)cc1 [Compound 8c, 4-(3-(3-(4-Methylbenzamido)benzoyl)thioureido)benzoic acid] | 254 to 256 °C
CC(=O)Nc1ccc(C(=O)NC(=S)Nc2ccc(C(=O)O)cc2)cc1 [Compound 8d, 4-(3-(4-Acetamidobenzoyl)thioureido)benzoic acid] | 245 to 247 °C
Cc1ccc(C(=O)Nc2cccc(C(=O)NC(=S)Nc3ccc(S(N)(=O)=O)cc3)c2)cc1 [Compound 7c, 3-(4-Methylbenzamido)-N-((4-sulfamoylphenyl)carbamothioyl)benzamide] | 210 to 212 °C
CC(C)C(=O)Nc1cccc(C(=O)NC(=S)Nc2ccc(C(=O)O)cc2)c1 [Compound 8b, 4-(3-(3-Isobutyramidobenzoyl)thioureido)benzoic acid] | 240 to 242 °C
CC(C)C(=O)Nc1ccc(C(=O)NC(=S)Nc2ccc(C(=O)O)cc2)cc1 [Compound 8e, 4-(3-(4-Isobutyramidobenzoyl)thioureido)benzoic acid] | 240 to 242 °C
Cc1ccc(C(=O)Nc2ccc(C(=O)NC(=S)Nc3ccc(S(N)(=O)=O)cc3)cc2)cc1 [Compound 7f, 4-Methyl-N-(4(((4sulfamoylphenyl)carbamothioyl)carbamoyl)phenyl) benzamide] | 228 to 230 °C

Results, then the compound that gave them:

melting point | Structure (SMILES)
254 to 256 °C | Cc1ccc(C(=O)Nc2ccc(C(=O)NC(=S)Nc3ccc(C(=O)O)cc3)cc2)cc1 [Compound 8f, 4-(3-(4–(4-Methylbenzamido)benzoyl)thioureido)benzoic acid]
237 to 239 °C | CCOC(=O)c1ccc(NC(=S)NC(=O)c2ccc(NC(C)=O)cc2)cc1 [Compound 9d, Ethyl 4–(3-(4-acetamidobenzoyl)thioureido)benzoate]
245 to 247 °C | CCOC(=O)c1ccc(NC(=S)NC(=O)c2cccc(NC(=O)C(C)C)c2)cc1 [Compound 9b, Ethyl 4–(3-(3-isobutyramidobenzoyl)thioureido)benzoate]

Molecular target: hCA I (Homo sapiens, UniProt P00915)
Sequence (P00915 whole entry): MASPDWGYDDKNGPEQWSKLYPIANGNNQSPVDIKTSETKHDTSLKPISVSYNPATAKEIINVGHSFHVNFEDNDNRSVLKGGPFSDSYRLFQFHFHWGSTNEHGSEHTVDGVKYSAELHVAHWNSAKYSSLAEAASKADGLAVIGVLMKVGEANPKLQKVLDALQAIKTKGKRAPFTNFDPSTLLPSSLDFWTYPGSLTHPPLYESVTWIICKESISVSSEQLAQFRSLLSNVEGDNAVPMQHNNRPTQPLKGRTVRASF
Test: Stopped flow CO2 hydrase assay, hCA I
Conditions: not given

Structure (SMILES) | Ki
Cc1ccc(C(=O)Nc2cccc(C(=O)NC(=S)Nc3ccc(C(=O)O)cc3)c2)cc1 [Compound 8c, 4-(3-(3-(4-Methylbenzamido)benzoyl)thioureido)benzoic acid] | 9.17 µM
CC(=O)Nc1ccc(C(=O)NC(=S)Nc2ccc(C(=O)O)cc2)cc1 [Compound 8d, 4-(3-(4-Acetamidobenzoyl)thioureido)benzoic acid] | > 100 µM
Cc1ccc(C(=O)Nc2cccc(C(=O)NC(=S)Nc3ccc(S(N)(=O)=O)cc3)c2)cc1 [Compound 7c, 3-(4-Methylbenzamido)-N-((4-sulfamoylphenyl)carbamothioyl)benzamide] | 0.033 µM
CC(C)C(=O)Nc1cccc(C(=O)NC(=S)Nc2ccc(C(=O)O)cc2)c1 [Compound 8b, 4-(3-(3-Isobutyramidobenzoyl)thioureido)benzoic acid] | > 100 µM
CC(C)C(=O)Nc1ccc(C(=O)NC(=S)Nc2ccc(C(=O)O)cc2)cc1 [Compound 8e, 4-(3-(4-Isobutyramidobenzoyl)thioureido)benzoic acid] | > 100 µM
Cc1ccc(C(=O)Nc2ccc(C(=O)NC(=S)Nc3ccc(S(N)(=O)=O)cc3)cc2)cc1 [Compound 7f, 4-Methyl-N-(4(((4sulfamoylphenyl)carbamothioyl)carbamoyl)phenyl) benzamide] | 0.043 µM

The next lines start with the values.

Ki | Structure (SMILES)
0.422 µM | Cc1ccc(C(=O)Nc2ccc(C(=O)NC(=S)Nc3ccc(C(=O)O)cc3)cc2)cc1 [Compound 8f, 4-(3-(4–(4-Methylbenzamido)benzoyl)thioureido)benzoic acid]
> 100 µM | CCOC(=O)c1ccc(NC(=S)NC(=O)c2ccc(NC(C)=O)cc2)cc1 [Compound 9d, Ethyl 4–(3-(4-acetamidobenzoyl)thioureido)benzoate]
8.66 µM | CCOC(=O)c1ccc(NC(=S)NC(=O)c2cccc(NC(=O)C(C)C)c2)cc1 [Compound 9b, Ethyl 4–(3-(3-isobutyramidobenzoyl)thioureido)benzoate]

Molecular target: hCA XII (Homo sapiens, UniProt O43570)
Sequence (O43570 25-354): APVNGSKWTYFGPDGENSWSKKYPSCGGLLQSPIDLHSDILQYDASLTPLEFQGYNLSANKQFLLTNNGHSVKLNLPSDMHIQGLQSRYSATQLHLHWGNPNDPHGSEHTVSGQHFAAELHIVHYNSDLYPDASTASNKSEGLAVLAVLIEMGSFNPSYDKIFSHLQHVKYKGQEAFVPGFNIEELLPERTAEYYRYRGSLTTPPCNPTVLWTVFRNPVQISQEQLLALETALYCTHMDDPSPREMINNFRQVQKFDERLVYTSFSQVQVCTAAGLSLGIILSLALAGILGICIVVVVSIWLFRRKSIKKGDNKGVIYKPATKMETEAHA
Test: Stopped flow CO2 hydrase assay, hCA XII
Conditions: not given

Structure (SMILES) | Ki
Cc1ccc(C(=O)Nc2cccc(C(=O)NC(=S)Nc3ccc(C(=O)O)cc3)c2)cc1 [Compound 8c, 4-(3-(3-(4-Methylbenzamido)benzoyl)thioureido)benzoic acid] | 0.145 µM
CC(=O)Nc1ccc(C(=O)NC(=S)Nc2ccc(C(=O)O)cc2)cc1 [Compound 8d, 4-(3-(4-Acetamidobenzoyl)thioureido)benzoic acid] | > 100 µM
Cc1ccc(C(=O)Nc2cccc(C(=O)NC(=S)Nc3ccc(S(N)(=O)=O)cc3)c2)cc1 [Compound 7c, 3-(4-Methylbenzamido)-N-((4-sulfamoylphenyl)carbamothioyl)benzamide] | > 100 µM
CC(C)C(=O)Nc1cccc(C(=O)NC(=S)Nc2ccc(C(=O)O)cc2)c1 [Compound 8b, 4-(3-(3-Isobutyramidobenzoyl)thioureido)benzoic acid] | 0.142 µM
CC(C)C(=O)Nc1ccc(C(=O)NC(=S)Nc2ccc(C(=O)O)cc2)cc1 [Compound 8e, 4-(3-(4-Isobutyramidobenzoyl)thioureido)benzoic acid] | 0.102 µM
Cc1ccc(C(=O)Nc2ccc(C(=O)NC(=S)Nc3ccc(S(N)(=O)=O)cc3)cc2)cc1 [Compound 7f, 4-Methyl-N-(4(((4sulfamoylphenyl)carbamothioyl)carbamoyl)phenyl) benzamide] | 0.106 µM

Results, then the compound that gave them:

Ki | Structure (SMILES)
0.011 µM | Cc1ccc(C(=O)Nc2ccc(C(=O)NC(=S)Nc3ccc(C(=O)O)cc3)cc2)cc1 [Compound 8f, 4-(3-(4–(4-Methylbenzamido)benzoyl)thioureido)benzoic acid]
> 100 µM | CCOC(=O)c1ccc(NC(=S)NC(=O)c2ccc(NC(C)=O)cc2)cc1 [Compound 9d, Ethyl 4–(3-(4-acetamidobenzoyl)thioureido)benzoate]
> 100 µM | CCOC(=O)c1ccc(NC(=S)NC(=O)c2cccc(NC(=O)C(C)C)c2)cc1 [Compound 9b, Ethyl 4–(3-(3-isobutyramidobenzoyl)thioureido)benzoate]

Same assay, conditions: inhibition of hCA XII over hCA I, calculated from Ki

Structure (SMILES) | Selectivity index I/XII
Cc1ccc(C(=O)Nc2ccc(C(=O)NC(=S)Nc3ccc(C(=O)O)cc3)cc2)cc1 [Compound 8f, 4-(3-(4–(4-Methylbenzamido)benzoyl)thioureido)benzoic acid] | 38

Same assay, conditions: inhibition of hCA XII over hCA II, calculated from Ki

Structure (SMILES) | Selectivity index II/XII
Cc1ccc(C(=O)Nc2ccc(C(=O)NC(=S)Nc3ccc(C(=O)O)cc3)cc2)cc1 [Compound 8f, 4-(3-(4–(4-Methylbenzamido)benzoyl)thioureido)benzoic acid] | >9091

Molecular target: hCA IX (Homo sapiens, UniProt Q16790)
Test: Stopped flow CO2 hydrase assay, hCA IX
Conditions: not given

Structure (SMILES) | Ki
Cc1ccc(C(=O)Nc2cccc(C(=O)NC(=S)Nc3ccc(C(=O)O)cc3)c2)cc1 [Compound 8c, 4-(3-(3-(4-Methylbenzamido)benzoyl)thioureido)benzoic acid] | 0.264 µM
CC(=O)Nc1ccc(C(=O)NC(=S)Nc2ccc(C(=O)O)cc2)cc1 [Compound 8d, 4-(3-(4-Acetamidobenzoyl)thioureido)benzoic acid] | 0.971 µM
Cc1ccc(C(=O)Nc2cccc(C(=O)NC(=S)Nc3ccc(S(N)(=O)=O)cc3)c2)cc1 [Compound 7c, 3-(4-Methylbenzamido)-N-((4-sulfamoylphenyl)carbamothioyl)benzamide] | 0.0312 µM
CC(C)C(=O)Nc1cccc(C(=O)NC(=S)Nc2ccc(C(=O)O)cc2)c1 [Compound 8b, 4-(3-(3-Isobutyramidobenzoyl)thioureido)benzoic acid] | 0.208 µM
CC(C)C(=O)Nc1ccc(C(=O)NC(=S)Nc2ccc(C(=O)O)cc2)cc1 [Compound 8e, 4-(3-(4-Isobutyramidobenzoyl)thioureido)benzoic acid] | 0.898 µM
Cc1ccc(C(=O)Nc2ccc(C(=O)NC(=S)Nc3ccc(S(N)(=O)=O)cc3)cc2)cc1 [Compound 7f, 4-Methyl-N-(4(((4sulfamoylphenyl)carbamothioyl)carbamoyl)phenyl) benzamide] | 0.03 µM

Second part, the compound after the results:

Ki | Structure (SMILES)
0.176 µM | Cc1ccc(C(=O)Nc2ccc(C(=O)NC(=S)Nc3ccc(C(=O)O)cc3)cc2)cc1 [Compound 8f, 4-(3-(4–(4-Methylbenzamido)benzoyl)thioureido)benzoic acid]
1.63 µM | CCOC(=O)c1ccc(NC(=S)NC(=O)c2ccc(NC(C)=O)cc2)cc1 [Compound 9d, Ethyl 4–(3-(4-acetamidobenzoyl)thioureido)benzoate]
0.3 µM | CCOC(=O)c1ccc(NC(=S)NC(=O)c2cccc(NC(=O)C(C)C)c2)cc1 [Compound 9b, Ethyl 4–(3-(3-isobutyramidobenzoyl)thioureido)benzoate]

Same assay, conditions: inhibition of hCA IX over hCA I, calculated from Ki

Structure (SMILES) | Selectivity index I/IX
Cc1ccc(C(=O)Nc2cccc(C(=O)NC(=S)Nc3ccc(S(N)(=O)=O)cc3)c2)cc1 [Compound 7c, 3-(4-Methylbenzamido)-N-((4-sulfamoylphenyl)carbamothioyl)benzamide] | 1.0
CC(C)C(=O)Nc1ccc(C(=O)NC(=S)Nc2ccc(C(=O)O)cc2)cc1 [Compound 8e, 4-(3-(4-Isobutyramidobenzoyl)thioureido)benzoic acid] | 293
Cc1ccc(C(=O)Nc2ccc(C(=O)NC(=S)Nc3ccc(S(N)(=O)=O)cc3)cc2)cc1 [Compound 7f, 4-Methyl-N-(4(((4sulfamoylphenyl)carbamothioyl)carbamoyl)phenyl) benzamide] | 1.4

Same assay, conditions: inhibition of hCA IX over hCA II, calculated from Ki

Structure (SMILES) | Selectivity index II/IX
Cc1ccc(C(=O)Nc2cccc(C(=O)NC(=S)Nc3ccc(S(N)(=O)=O)cc3)c2)cc1 [Compound 7c, 3-(4-Methylbenzamido)-N-((4-sulfamoylphenyl)carbamothioyl)benzamide] | 2.0
Cc1ccc(C(=O)Nc2ccc(C(=O)NC(=S)Nc3ccc(S(N)(=O)=O)cc3)cc2)cc1 [Compound 7f, 4-Methyl-N-(4(((4sulfamoylphenyl)carbamothioyl)carbamoyl)phenyl) benzamide] | 1.3
